Key:
Experiment in all cases: relative viability (nuclei count vs DMSO), 5 days (fraction); higher = more cells survive
[1] = compound: CCC1=CN=CN=C1N2CCN(CC2)CC3=NC4=C(N3)C=C(C=C4)C(F)(F)F + O=C(CCCCCCC(=O)Nc1ccccc1)NO [Vorinostat] (partner 1 µM)
Method in brief: (§1)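 Nuclei were stained with Hoechst during a one-step fixation (final 0.05% Triton X-100, 1% formaldehyde, 1 ug/ml Hoechst) carried out 5 days after dosing, then counted on 4× images. The cells, lung cancer lines in 1536-well plates, had been dosed by pin tool the day after seeding with one drug alone or a fixed anchor-drug dose plus five library-drug doses (not always all listed) in √10 steps. Relative viability is the nuclei count in treated wells divided by that in vehicle wells, and each value is the median of duplicate plates.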

[2] = compound: N=C1NC(=O)/C(=C/c2ccc(O)cc2)S1 [Mirin] + COc1cccc2cc(-c3nc([C@H]4CC[C@H](C(=O)O)CC4)n4ncnc(N)c34)[nH]c12 [OSI-027] (partner 0.5 µM)
Method in brief: as §1

[3] = compound: N=C1NC(=O)/C(=C/c2ccc(O)cc2)S1 [Mirin] + C[C@@H](Oc1cc(-c2cnn(C3CCNCC3)c2)cnc1N)c1c(Cl)ccc(F)c1Cl [Crizotinib] (partner 1 µM)
Method in brief: as §1

Cell Line	relative viability ([1]; first compound 0.04 µM)	relative viability ([1]; first compound 0.1265 µM)	relative viability ([1]; first compound 0.4 µM)	relative viability ([1]; first compound 1.265 µM)	relative viability ([1]; first compound 4 µM)	relative viability ([2]; first compound 0.25 µM)	relative viability ([2]; first compound 0.7906 µM)	relative viability ([2]; first compound 2.5 µM)	relative viability ([2]; first compound 7.906 µM)	relative viability ([2]; first compound 25 µM)	relative viability ([3]; first compound 0.25 µM)	relative viability ([3]; first compound 0.7906 µM)	relative viability ([3]; first compound 2.5 µM)	relative viability ([3]; first compound 7.906 µM)	relative viability ([3]; first compound 25 µM)
NCI-H1355	0.643	0.575	0.584	0.585	0.644	0.411	0.376	0.379	0.406	0.424	1.07	1.18	1.02	1.04	1.1
EKVX	0.767	0.678	0.739	0.575	0.659	0.691	0.672	0.761	0.591	0.67	0.839	0.811	1.1	0.947	1.1
NCI-H460	0.819	0.69	0.708	0.684	0.672	0.612	0.672	0.748	0.55	0.389	0.887	1.15	0.935	0.875	0.915
NCI-H1975	0.796	0.703	0.704	0.654	0.687	0.783	0.733	0.692	0.82	0.626	0.974	1.02	0.93	0.954	0.943
HCC-78	0.528	0.405	0.47	0.4	0.409	0.37	0.366	0.419	0.292	0.349	0.362	0.381	0.371	0.386	0.41
NCI-H2085	0.728	0.709	0.697	0.763	0.766	0.873	0.674	0.748	0.603	0.584	0.798	0.853	0.878	0.704	0.923
H3255	0.946	0.576	0.929	0.762	0.754	0.558	0.536	0.636	0.475	0.616	0.882	0.939	0.838	0.735	0.836
NCI-H2126	0.794	0.781	0.766	0.595	0.742	0.76	0.655	0.585	0.773	0.579	1.02	1.07	0.981	0.994	1.21
LC-2-ad	0.737	0.652	0.636	0.687	0.682	0.851	0.776	0.822	0.567	0.492	0.493	0.518	0.466	–	0.254
RERF-LC-KJ	0.638	0.717	0.715	0.634	0.704	0.691	0.59	0.596	0.651	0.425	0.845	0.894	0.821	0.845	0.913
EBC-1	–	–	–	–	–	–	–	–	–	–	0.21	0.221	0.166	0.194	0.21
